Read-outs that look alike come from different tables or passages of the source.
Tests used:
[1] = system: murine mammary carcinoma 4T1 cells; experiment: Photosensitizer-mediated PDT, in vitro proliferation (MTT), 4T1; format: cell-based; settings: for cell viability (%), +8 J/cm^2 / cell viability (%), No light / viability at 10 µg/mL: 10 μg/mL
Method: (§1) Several kinds of tumor cells (human cervical cancer Hela cells, human hepatocellular carcinoma huh-7 cells and murine mammary carcinoma 4T1 cells) cultured in vitro from a variety of tissues were taken as cell models, so as to investigate the photodynamic effects mediated by different doses of CEFN, CEFO, Ce6 and HPPH on the three different tumor cells (n=3). The specific experimental procedures were carried out as follows.
(§2) Cells in the logarithmic growth phase were harvested and seeded in a 24-well plate. After growing to a confluence of 70-80%, the cells were randomly divided into a control group (free of drug and light irradiation), a drug group and a photodynamic group. The CEFN, CEFO, Ce6 and HPPH were added respectively in dark, and for each drug, four final concentrations 1, 2, 5, and 10 μg/mL were set with 3 replicates for each group. After the co-incubation, the groups were treated individually. Regarding the photodynamic group, the light irradiation was performed at a wavelength of 660 nm and three different light intensities, i.e., 2, 4 and 8 J/cm^2. After that, each group was digested, and were inoculated into a 96-well plate at 100 μL per well with 4 replicates for each treatment. 24 hours later, the 96-well plate was subjected to MTT assay as follows. Each well was added with 20 μL of MTT (3-4,5-dimethylthiazol-2,5-diphenyltetrazolium bromide) solution in the dark and incubated for 4 hours. The supernatant was discarded, and the residue was dissolved with 150 μL of dimethyl sulfoxide for 15 min. After that, the 96-well plate was measured by a microplate reader for the absorbance (OD value). The relative cell viability was calculated as follows: relative cell viability=OD value of experimental group/OD value of control group*100%.
(§3) In this experiment, photodynamic effect mediated by the compounds (except CEFO and CEFN) in different Examples of this disclosure on the murine mammary carcinoma 4T1 cells was investigated. The experimental procedures are carried out as follows. Cells in the logarithmic growth phase were harvested and seeded in a 24-well plate. After growing to a confluence of 70-80%, the cells were randomly divided into multiple photodynamic groups and multiple no-light control groups. The compounds (as shown in Table 8a) with a final concentration of 10 μg/mL were added to each group respectively in dark with 3 replicates for each group, so as to co-incubate the cells with the drug. Regarding the multiple photodynamic groups, the light irradiation was performed at a wavelength of 660 nm and the light intensity of 8 J/cm^2. After that, each group was digested, and were inoculated into a 96-well plate at 100 μL per well with 4 replicates for light treatment and no light treatment. 24 hours later, the 96-well plate was measured by MTT assay as follows. Each well was added with 20 μL of MTT (3-4,5-dimethylthiazol-2,5-diphenyltetrazolium bromide) solution in the dark and incubated for 4 hours. The supernatant was discarded, and the residue was dissolved with 150 μL of dimethyl sulfoxide for 15 min. After that, the 96-well plate was measured by a microplate reader for the absorbance (OD value). The relative cell viability of the murine mammary carcinoma 4T1 cells was calculated as follows according to the measured absorbance (OD value) in each group: relative cell viability=OD value of experimental group/OD value of control group*100%.

[2] = as above; format: cell-based, murine; settings: mouse, 4T1 cells, no light
Method: as §1, §2, §3

[3] = background statement; cited from earlier work
[4] = Photosensitizer-mediated PDT, in vitro proliferation (MTT), Hela; format: cell-based, human; settings: human, Hela cells, Hela, no light, read-out: cell viability (%)
Method: as §1, §2

[5] = system: human cervical cancer Hela cells; experiment: as above; format: cell-based
Method: as §1, §2

[6] = system: human hepatocellular carcinoma huh-7 cells; experiment: Photosensitizer-mediated PDT, in vitro proliferation (MTT), huh-7; format: cell-based; settings: Homo sapiens, light or radiation study, 660 nm, 8 J/cm^2, read-out: cell viability (%)
Method: as §1, §2

[7] = as above; format: cell-based, human; settings: human, huh-7 cells, no light, read-out: cell viability (%)
Method: as §1, §2

[8] = system: murine mammary carcinoma 4T1 cells; experiment: Antitumor activity as sonosensitizers (SDT) on tumor-bearing mice; format: in vivo
Method: The murine mammary carcinoma cells (4T1 line) were subjected to adherent culture. After growing to a confluence of 70%-80%, the cells in the culture flask were routinely digested, centrifuged and counted, and then resuspended with 0.85% normal saline to a density of 1×10^7 cells/mL. The cell suspension was injected into the left lateral middle axillary subcutaneous part of […] Bal b/c healthy mice (female, aged 6-8 weeks) at 0.1 mL/mouse. When the tumor diameter, which was observed every other day, reached 0.6-0.8 cm, the mice with well-growing tumors and no ulcers on the epidermis were selected for grouped treatment.
Mice with similar body weight and uniform tumor size are selected and randomly divided into 6 groups with 6 mice for each group. 48 h after inoculation, the mice were subjected to drug administration separately from the tail vein by group.
[…] 6 h after drug administration, each group of mice was anesthetized by intraperitoneal injection with 0.2 mL of 1% pentobarbital sodium. Then the mice were fixed to allow the tumor growth site exposed. The SDT group was treated using an ultrasonic therapeutic apparatus at an impulse waveform of 1.0 MHz and power of 3.0 W/cm^2 for 3 min. 7 days after SDT, the animals were sacrificed. The tumor was stripped and weighed, and the body weight was recorded.

[9] = Mus musculus, light or radiation study, Table 8a, 660 nm, 8 J/cm^2, read-out: cell viability (%), +8 J/cm^2
[10] = Table 8a, read-out: cell viability (%), No light
[11] = 5 mg/kg tail vein, SDT 1.0 MHz, 3.0 W/cm^2, 3 min, 6 h after dosing, 7 days after SDT
[12] = 5 mg/kg, SDT, mice, in g (unit assumed)

With `CCCCCCNCc1c(C)c2cc3nc(c(C)c4[nH]c(cc5nc(cc1[nH]2)C(C)=C5CC)c(C)c4C(=O)O)[C@@H](CCC(=O)O)[C@@H]3C` [Example 16, 3-n-hexylaminomethyl-3-devinyl-chlorin e4] the “cell viability (%), +8 J/cm^2” value ([1]; Table 8a, 660 nm) was 7 ± 5% and the “cell viability (%), No light” value ([1]; Table 8a) was 103 ± 3%.
`CCCCNCc1c(C)c2cc3nc(c(C)c4[nH]c(cc5nc(cc1[nH]2)C(C)=C5CC)c(C)c4C(=O)O)[C@@H](CCC(=O)O)[C@@H]3C` [Example 27] gave a viability at 10 µg/mL [1, 9] of 6 ± 2% and a viability at 24 h, 10 μg/mL [2, 10] of 103 ± 3%.
For `CCCCCCCCCCCOCc1c(C)c2cc3nc(c(C)c4[nH]c(cc5nc(cc1[nH]2)C(C)=C5CC)c(C)c4C(=O)O)[C@@H](CCC(=O)O)[C@@H]3C` [Example 6], the “cell viability (%), +8 J/cm^2” value ([1]; Table 8a, 660 nm) was 4 ± 3% and the “cell viability (%), No light” value ([1]; Table 8a) was 102 ± 2%.
In the case of `CCCCCCCCCCCCNCc1c(C)c2cc3nc(c(C)c4[nH]c(cc5nc(cc1[nH]2)C(C)=C5CC)c(C)c4C(=O)O)[C@@H](CCC(=O)O)[C@@H]3C` [Example 20], the viability at 10 µg/mL [1, 9] is reported as 6 ± 3% and the viability at 24 h, 10 μg/mL [2, 10] is reported as 104 ± 1%.
For `CCCCCCCCCNCc1c(C)c2cc3nc(c(C)c4[nH]c(cc5nc(cc1[nH]2)C(C)=C5CC)c(C)c4C(=O)O)[C@@H](CCC(=O)O)[C@@H]3C` [Example 23], the viability at 10 µg/mL [1, 9] was 8 ± 5% and the viability at 24 h, 10 μg/mL [2, 10] was 102 ± 2%.
`CCCCCNCc1c(C)c2cc3nc(c(C)c4[nH]c(cc5nc(cc1[nH]2)C(C)=C5CC)c(C)c4C(=O)O)[C@@H](CCC(=O)O)[C@@H]3C` [Example 26] gave a viability at 10 µg/mL [1, 9] of 6 ± 5% and a viability at 24 h, 10 μg/mL [2, 10] of 102 ± 1%.
For “2-(1-n-hexyloxy)ethyl chlorin f sodium salt”, the water solubility [3] is listed as “water-soluble”.
In the case of `CCCCCCCCCCCNCc1c(C)c2cc3nc(c(C)c4[nH]c(cc5nc(cc1[nH]2)C(C)=C5CC)c(C)c4C(=O)O)[C@@H](CCC(=O)O)[C@@H]3C` [Example 21], the viability at 10 µg/mL [1, 9] is reported as 9 ± 2% and the viability at 24 h, 10 μg/mL [2, 10] is reported as 101 ± 1%.
`CCCCCCCCNCc1c(C)c2cc3nc(c(C)c4[nH]c(cc5nc(cc1[nH]2)C(C)=C5CC)c(C)c4C(=O)O)[C@@H](CCC(=O)O)[C@@H]3C` [Example 24] gave a viability at 10 µg/mL [1, 9] of 9 ± 5% and a viability at 24 h, 10 μg/mL [2, 10] of 100 ± 2%.
In the case of `C=Cc1c(C)c2cc3nc(c(CC(=O)O)c4[nH]c(cc5nc(cc1[nH]2)C(C)=C5CC)c(C)c4C(=O)O)[C@@H](CCC(=O)O)[C@@H]3C` [Ce6, reference compound], the viability at 24 h, 1 μg/mL ([4]; 1 μg/mL) is reported as 92 ± 3%, the viability at 24 h, 2 μg/mL ([4]; 2 μg/mL) is reported as 89 ± 2% and the viability at 24 h, 5 μg/mL ([4]; 5 μg/mL) is reported as 86 ± 4%. For the same compound, the viability at 24 h, 10 μg/mL ([4]; 10 μg/mL) was 83 ± 3%, the viability at 1 µg/mL ([5]; Homo sapiens, light or radiation study, Hela, 1 μg/mL, 660 nm, 8 J/cm^2, read-out: cell viability (%)) was 86 ± 3% and the viability at 2 µg/mL ([5]; Homo sapiens, light or radiation study, Hela, 2 μg/mL, 660 nm, 8 J/cm^2, read-out: cell viability (%)) was 76 ± 3%. The viability at 5 µg/mL ([5]; Homo sapiens, light or radiation study, Hela, 5 μg/mL, 660 nm, 8 J/cm^2, read-out: cell viability (%)) was 38 ± 2%, the viability at 10 µg/mL ([5]; Homo sapiens, light or radiation study, Hela, 10 μg/mL, 660 nm, 8 J/cm^2, read-out: cell viability (%)) was 21 ± 1% and the “toxicity to the cells when the drug is used alone without photodynamic treatment” value ([5]; summary statement for Hela, huh-7 and 4T1 cells, no light) was “toxic to the cells”. For the same compound, the viability at 1 µg/mL ([6]; 1 μg/mL) was 42 ± 3%, the viability at 2 µg/mL ([6]; 2 μg/mL) was 37 ± 3% and the viability at 5 µg/mL ([6]; 5 μg/mL) was 37 ± 2%. The viability at 10 µg/mL ([6]; 10 μg/mL) was 32 ± 3%, the viability at 24 h, 1 μg/mL ([7]; 1 μg/mL) was 96 ± 1% and the viability at 24 h, 2 μg/mL ([7]; 2 μg/mL) was 94 ± 2%. The viability at 24 h, 5 μg/mL ([7]; 5 μg/mL) was 90 ± 2%, the viability at 24 h, 10 μg/mL ([7]; 10 μg/mL) was 87 ± 2% and the viability at 1 µg/mL ([1]; Mus musculus, light or radiation study, 1 μg/mL, 660 nm, 8 J/cm^2, read-out: cell viability (%)) was 88 ± 2%. For the same compound, the viability at 2 µg/mL ([1]; Mus musculus, light or radiation study, 2 μg/mL, 660 nm, 8 J/cm^2, read-out: cell viability (%)) was 79 ± 3%, the viability at 5 µg/mL ([1]; Mus musculus, light or radiation study, 5 μg/mL, 660 nm, 8 J/cm^2, read-out: cell viability (%)) was 54 ± 3% and the viability at 10 µg/mL ([1]; Mus musculus, light or radiation study, 660 nm, 8 J/cm^2, read-out: cell viability (%)) was 36 ± 1%. The viability at 24 h, 1 μg/mL ([2]; 1 μg/mL, read-out: cell viability (%)) was 91 ± 2%, the viability at 24 h, 2 μg/mL ([2]; 2 μg/mL, read-out: cell viability (%)) was 90 ± 3% and the viability at 24 h, 5 μg/mL ([2]; 5 μg/mL, read-out: cell viability (%)) was 86 ± 4%. For the same compound, the viability at 24 h, 10 μg/mL ([2]; read-out: cell viability (%)) was 85 ± 4%, the “Inhibitory rate (average ± SD, %)” value [8, 11] was 53.3 ± 2.8% and the “Tumor weight (average ± SD, g)” value [8, 11] was 0.080 ± 0.005 g. For the same compound, the “Body weight At the beginning” value [8, 12] was 20.5 ± 0.4 and the “Body weight At the end” value [8, 12] was 21.4 ± 0.5.
`CCCCCCCCCCNCc1c(C)c2cc3nc(c(C)c4[nH]c(cc5nc(cc1[nH]2)C(C)=C5CC)c(C)c4C(=O)O)[C@@H](CCC(=O)O)[C@@H]3C` [Example 22] showed a viability at 10 µg/mL [1, 9] of 10 ± 4% and a viability at 24 h, 10 μg/mL [2, 10] of 99 ± 2%.
`CCCCCCCNCc1c(C)c2cc3nc(c(C)c4[nH]c(cc5nc(cc1[nH]2)C(C)=C5CC)c(C)c4C(=O)O)[C@@H](CCC(=O)O)[C@@H]3C` [Example 25] gave a viability at 10 µg/mL [1, 9] of 5 ± 3% and a viability at 24 h, 10 μg/mL [2, 10] of 100 ± 2%.
In the case of `CCCNCc1c(C)c2cc3nc(c(C)c4[nH]c(cc5nc(cc1[nH]2)C(C)=C5CC)c(C)c4C(=O)O)[C@@H](CCC(=O)O)[C@@H]3C` [Example 28], the viability at 10 µg/mL [1, 9] is reported as 7 ± 4% and the viability at 24 h, 10 μg/mL [2, 10] is reported as 104 ± 1%.
With `CCCCCCOCc1c(C)c2cc3nc(c(C)c4[nH]c(cc5nc(cc1[nH]2)C(C)=C5CC)c(C)c4C(=O)O)C(CCC(=O)O)C3C` (stereo not drawn) [Example 1, 3-hexyloxymethyl-3-devinyl-chlorin e4] the “cell viability (%), +8 J/cm^2” value ([1]; Table 8a, 660 nm) was 2 ± 5% and the “cell viability (%), No light” value ([1]; Table 8a) was 103 ± 1%.

Source: patent US11787816B2, “Chlorin compound, and preparation and use thereof” (Southwest Jiaotong University, priority 2021, dated 2023)
